Reference: patent US12662490B2, “Heterocyclic compounds” (Hoffmann-La Roche Inc., priority 2019, dated 2026)

These molecules were tested against T1, MAGL (Homo sapiens, UniProt Q99685) (assay: 2-AG assay (MAGL inhibitory activity; hydrolysis of 2-arachidonoylglycerol to arachidonic acid followed by mass spectrometry)). Details: 15 min preincubation at RT, 8 μM 2-arachidonoylglycerol, 30 min at RT, RapidFire MS readout.
T1 sequence (Q99685 1-303): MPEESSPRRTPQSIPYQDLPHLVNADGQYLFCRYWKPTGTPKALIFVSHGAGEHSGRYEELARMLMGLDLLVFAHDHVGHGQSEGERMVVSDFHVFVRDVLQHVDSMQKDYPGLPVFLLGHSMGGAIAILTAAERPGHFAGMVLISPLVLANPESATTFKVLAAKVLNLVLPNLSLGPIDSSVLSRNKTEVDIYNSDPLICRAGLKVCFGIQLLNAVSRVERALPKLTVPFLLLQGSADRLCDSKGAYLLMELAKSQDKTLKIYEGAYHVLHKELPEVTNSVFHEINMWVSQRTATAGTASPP
Type: biochemical
Procedure, shortened: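 Compounds (final 12.5 μM to […], 3-fold steps) preincubated 15 min at RT with MAGL ([…]) in 50 mM TRIS, 1 mM EDTA, Tween buffer. Reaction started with 8 μM 2-arachidonoylglycerol, run 30 min at RT, quenched with ACN containing d8-arachidonic acid. Arachidonic acid quantified by RapidFire SPE-triple quadrupole MS (negative ESI), activity from arachidonic acid/d8 ratio.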

Point of comparison: `COc1cccc(C(=O)N2CCN3C[C@H](c4cc(Cl)ccn4)OC[C@@H]3C2)c1Cl` [Example 90, [(3R,9aS)-3-(4-chloro-2-pyridyl)-3,4,6,7,9,9a-hexahydro-1H-pyrazino[2,1-c][1,4]oxazin-8-yl]-(2-chloro-3-methoxy-phenyl)methanone], IC50 2310 nM. Against it:
- N#Cc1n[nH]cc1-c1cccc(C(=O)N2CCN3C[C@@](O)(c4ccc(C(F)(F)F)nc4)OC[C@@H]3C2)c1Cl [Example 80, 4-[3-[(3R,9aS)-3-hydroxy-3-[6-(trifluoromethyl)-3-pyridyl]-1,4,6,7,9,9a-hexahydropyrazino[2,1-c][1,4]oxazine-8-carbonyl]-2-chloro-phenyl]-1H-pyrazole-3-carbonitrile] — 88-fold lower, 26.2 nM
- O=C(c1cccc(-c2c[nH]nc2F)c1)N1CCN2C[C@@](O)(c3ccc(C(F)(F)F)nc3)OC[C@@H]2C1 [Example 81, [(3R,9aS)-3-hydroxy-3-[6-(trifluoromethyl)-3-pyridyl]-1,4,6,7,9,9a-hexahydropyrazino[2,1-c][1,4]oxazin-8-yl]-[3-(3-fluoro-1H-pyrazol-4-yl)phenyl]methanone] — 29-fold lower, 80.4 nM
- O=C(c1cccc(-c2cn[nH]c2)c1Cl)N1CCN2C[C@@](O)(c3ccc(C(F)(F)F)nc3)OC[C@@H]2C1 [Example 82, [(3R,9aS)-3-hydroxy-3-[6-(trifluoromethyl)-3-pyridyl]-1,4,6,7,9,9a-hexahydropyrazino[2,1-c][1,4]oxazin-8-yl]-[2-chloro-3-(1H-pyrazol-4-yl)phenyl]methanone] — 150-fold lower, 15.9 nM
- COc1cccc(C(=O)N2CCN3C[C@@H](c4cc(C)c(Cl)cn4)OC[C@@H]3C2)c1Cl [Example 83, (2-chloro-3-methoxyphenyl)((3S,9aS)-3-(5-chloro-4-methylpyridin-2-yl)hexahydropyrazino[2,1-c][1,4]oxazin-8(1H)-yl)methanone] — 24-fold lower, 94.4 nM
- COc1cccc(C(=O)N2CCN3C[C@H](c4cc(C)c(Cl)cn4)OC[C@@H]3C2)c1Cl [Example 84, (2-chloro-3-methoxyphenyl)((3R,9aS)-3-(5-chloro-4-methylpyridin-2-yl)hexahydropyrazino[2,1-c][1,4]oxazin-8(1H)-yl)methanone] — 6.9-fold lower, 333 nM
- O=C(c1cccc(-c2c[nH]nc2F)c1Cl)N1CCN2C[C@@](O)(c3ccc(C(F)(F)F)cn3)OC[C@@H]2C1 [Example 85, [(3S,9aS)-3-hydroxy-3-[5-(trifluoromethyl)-2-pyridyl]-1,4,6,7,9,9a-hexahydropyrazino[2,1-c][1,4]oxazin-8-yl]-[2-chloro-3-(3-fluoro-1H-pyrazol-4-yl)phenyl]methanone] — 60-fold lower, 38.2 nM
- O=C(c1cccc(-c2cocn2)c1Cl)N1CCN2C[C@@](O)(c3ccc(C(F)(F)F)cn3)OC[C@@H]2C1 [Example 86, [(3S,9aS)-3-hydroxy-3-[5-(trifluoromethyl)-2-pyridyl]-1,4,6,7,9,9a-hexahydropyrazino[2,1-c][1,4]oxazin-8-yl]-(2-chloro-3-oxazol-4-yl-phenyl)methanone] — 9.7-fold lower, 237 nM
- COc1cccc(C(=O)N2CCN3C=C(c4nc5ccccc5s4)OCC3C2)c1Cl (stereo not shown) [Example 87, [3-(1,3-benzothiazol-2-yl)-6,7,9,9a-tetrahydro-1H-pyrazino[2,1-c][1,4]oxazin-8-yl]-(2-chloro-3-methoxy-phenyl)methanone] — 2.3-fold lower, 983 nM
- O=C(c1cccc(-c2c[nH]nc2F)c1Cl)N1CCN2C[C@@](F)(c3ccc(C(F)(F)F)nc3)OC[C@@H]2C1 [Example 88, [2-chloro-3-(3-fluoro-1H-pyrazol-4-yl)phenyl]-[(3S,9aS)-3-fluoro-3-[6-(trifluoromethyl)-3-pyridyl]-1,4,6,7,9,9a-hexahydropyrazino[2,1-c][1,4]oxazin-8-yl]methanone] — 220-fold lower, 10.7 nM
- COc1cccc(C(=O)N2CCN3C[C@@H](c4ccc(C(F)(F)F)nn4)OC[C@@H]3C2)c1Cl [Example 89, (2-chloro-3-methoxy-phenyl)-[(3S,9aS)-3-[6-(trifluoromethyl)pyridazin-3-yl]-3,4,6,7,9,9a-hexahydro-1H-pyrazino[2,1-c][1,4]oxazin-8-yl]methanone] — within 1.5-fold, 2030 nM
- COc1cccc(C(=O)N2CCN3C[C@@H](c4cc(Cl)ccn4)OC[C@@H]3C2)c1Cl [Example 91, [(3S,9aS)-3-(4-chloro-2-pyridyl)-3,4,6,7,9,9a-hexahydro-1H-pyrazino[2,1-c][1,4]oxazin-8-yl]-(2-chloro-3-methoxy-phenyl)methanone] — 10-fold lower, 232 nM
- O=C(c1cccc(-c2c[nH]nc2F)c1Cl)N1CCN2C[C@@](O)(c3ccc(F)c(F)c3)OC[C@@H]2C1 [Example 92, [(3R,9aS)-3-(3,4-difluorophenyl)-3-hydroxy-1,4,6,7,9,9a-hexahydropyrazino[2,1-c][1,4]oxazin-8-yl]-[2-chloro-3-(3-fluoro-1H-pyrazol-4-yl)phenyl]methanone] — 250-fold lower, 9.1 nM
- O=C(c1cccc(-c2c[nH]nc2F)c1)N1CCN2C[C@@](O)(c3ccc(F)c(F)c3)OC[C@@H]2C1 [Example 93, [(3R,9aS)-3-(3,4-difluorophenyl)-3-hydroxy-1,4,6,7,9,9a-hexahydropyrazino[2,1-c][1,4]oxazin-8-yl]-[3-(3-fluoro-1H-pyrazol-4-yl)phenyl]methanone] — 28-fold lower, 81.9 nM
- O=C(c1cccc(-c2c[nH]nc2F)c1Cl)N1CCN2C=C(c3ccc(C(F)(F)F)cn3)OC[C@@H]2C1 [Example 94, [(9aS)-3-[5-(trifluoromethyl)-2-pyridyl]-6,7,9,9a-tetrahydro-1H-pyrazino[2,1-c][1,4]oxazin-8-yl]-[2-chloro-3-(3-fluoro-1H-pyrazol-4-yl)phenyl]methanone] — 10-fold lower, 220 nM
- O=C(c1cccc(-c2c[nH]nc2F)c1Cl)N1CCN2C[C@@H](c3ccc(F)c(F)c3)OC[C@@H]2C1 [Example 95, [(3R,9aS)-3-(3,4-difluorophenyl)-3,4,6,7,9,9a-hexahydro-1H-pyrazino[2,1-c][1,4]oxazin-8-yl]-[2-chloro-3-(3-fluoro-1H-pyrazol-4-yl)phenyl]methanone] — 300-fold lower, 7.6 nM
- O=C(c1cccc(-c2c[nH]nc2F)c1Cl)N1CCN2C[C@H](c3ccc(F)c(F)c3)OC[C@@H]2C1 [Example 96, [(3S,9aS)-3-(3,4-difluorophenyl)-3,4,6,7,9,9a-hexahydro-1H-pyrazino[2,1-c][1,4]oxazin-8-yl]-[2-chloro-3-(3-fluoro-1H-pyrazol-4-yl)phenyl]methanone] — 1.9-fold lower, 1240 nM
- O=C(c1cccc(-c2c[nH]nc2F)c1Cl)N1CCN2C[C@@H](c3ccc(C(F)(F)F)nn3)OC[C@@H]2C1 [Example 97, [(3S,9aS)-3-[6-(trifluoromethyl)pyridazin-3-yl]-3,4,6,7,9,9a-hexahydro-1H-pyrazino[2,1-c][1,4]oxazin-8-yl]-[2-chloro-3-(3-fluoro-1H-pyrazol-4-yl)phenyl]methanone] — 5.3-fold lower, 439 nM
- COc1cccc(C(=O)N2CCN3C[C@@H](c4cc(C(F)(F)F)c(Cl)cn4)OC[C@@H]3C2)c1Cl [Example 98, (2-chloro-3-methoxy-phenyl)-[(3S,9aS)-3-[5-chloro-4-(trifluoromethyl)-2-pyridyl]-3,4,6,7,9,9a-hexahydro-1H-pyrazino[2,1-c][1,4]oxazin-8-yl]methanone] — 75-fold lower, 30.7 nM
- COc1cccc(C(=O)N2CCN3C[C@@H](c4cc(OC(F)(F)F)ccn4)OC[C@@H]3C2)c1Cl [Example 99, (2-chloro-3-methoxy-phenyl)-[(3S,9aS)-3-[4-(trifluoromethoxy)-2-pyridyl]-3,4,6,7,9,9a-hexahydro-1H-pyrazino[2,1-c][1,4]oxazin-8-yl]methanone] — 8.1-fold lower, 284 nM
- O=C(c1cccc(-c2c[nH]nc2F)c1Cl)N1CCN2C[C@@](O)(c3ccc(C(F)(F)F)[nH]c3=O)OC[C@@H]2C1 [Example 100, 3-[(3R,9aS)-8-[2-chloro-3-(3-fluoro-1H-pyrazol-4-yl)benzoyl]-3-hydroxy-1,4,6,7,9,9a-hexahydropyrazino[2,1-c][1,4]oxazin-3-yl]-6-(trifluoromethyl)-1H-pyridin-2-one] — 42-fold lower, 55.3 nM
- COc1cccc(C(=O)N2CCN3C[C@@H](c4cc(C(F)(F)F)c(F)cn4)OC[C@@H]3C2)c1Cl [Example 101, (2-chloro-3-methoxy-phenyl)-[(3S,9aS)-3-[5-fluoro-4-(trifluoromethyl)-2-pyridyl]-3,4,6,7,9,9a-hexahydro-1H-pyrazino[2,1-c][1,4]oxazin-8-yl]methanone] — 17-fold lower, 133 nM
- O=C(c1cccc(-c2cn[nH]c2C(F)(F)F)c1F)N1CCN2C[C@@H](c3ccc(F)c(Cl)c3)OC[C@@H]2C1 [Example 102, [(3R,9aS)-3-(3-chloro-4-fluoro-phenyl)-3,4,6,7,9,9a-hexahydro-1H-pyrazino[2,1-c][1,4]oxazin-8-yl]-[2-fluoro-3-[5-(trifluoromethyl)-1H-pyrazol-4-yl]phenyl]methanone] — 110-fold lower, 20.7 nM
- O=C(c1cccc(-c2cn[nH]c2C(F)(F)F)c1)N1CCN2C[C@@H](c3ccc(F)c(Cl)c3)OC[C@@H]2C1 [Example 103, [(3R,9aS)-3-(3-chloro-4-fluoro-phenyl)-3,4,6,7,9,9a-hexahydro-1H-pyrazino[2,1-c][1,4]oxazin-8-yl]-[3-[5-(trifluoromethyl)-1H-pyrazol-4-yl]phenyl]methanone] — 82-fold lower, 28.2 nM
- COc1cccc(C(=O)N2CCN3C[C@@H](c4cc(C(F)F)c(Cl)cn4)OC[C@@H]3C2)c1Cl [Example 104, (2-chloro-3-methoxy-phenyl)-[(3S,9aS)-3-[5-chloro-4-(difluoromethyl)-2-pyridyl]-3,4,6,7,9,9a-hexahydro-1H-pyrazino[2,1-c][1,4]oxazin-8-yl]methanone] — 26-fold lower, 89.5 nM
